Measurements as given in patent US20150044211A1, “COMBINATION OF A 6-OXO-1,6-DIHYDRO-PYRIDAZINE DERIVATIVE HAVING ANTI-CANCER ACTIVITY WITH OTHER ANTI-TUMOR COMPOUNDS” (MERCK PATENT GMBH, priority 2012, published 2015).

Columns and labels:
[1] = test system: human NCI-H441 NSCLC tumor cells; settings: female CD-1 nude mice; for T/C: end of treatment (18 days), compound 100 mg/kg orally 5 days on 2 days off, erlotinib 40 then 30 mg/kg (MTD)
Description: (§1) Method: Female CD-1 nude mice (6-8 week old) where subcutaneously injected with human NCI-H441 NSCLC tumor cells and were divided into 4 groups (ten animals in one group) after the tumors were established. Respective groups were administered orally with the 3-(1-{3-[5-(1-Methyl-piperidin-4-ylmethoxy)-pyrimidin-2-yl]-benzyl}-6-oxo-1,6-dihydro-pyridazin-3-yl)-benzonitrile hydrochloride hydrate (100 mg/kg—5 days on and 2 days off) or with erlotinib (initial 40 mg/kg followed by 30 mg/kg (MTD)-4 days on and 4 days off followed by 3 days on and 4 days off) alone or both drugs simultaneously for 18 days. […] Statistical calculation has been done at day 7, the day with most body weight difference in erlotinib monotherapy versus combination groups.

[2] = Body weight change / tolerability in the NCI-H441 xenograft study; settings: Day 7
Description: as §1

[3] = test system: human H1975 NSCLC tumor cells; experiment: H1975 NSCLC xenograft, combination with cetuximab; type: in vivo; settings: single agent 100 mg/kg orally daily for three weeks; CD-1 nude mice
Text: Method: Female CD-1 nude mice (6-8 week old) where subcutaneously injected with human H1975 NSCLC tumor cells and were divided into 4 groups (nine animals in one group) after the tumors were established.

[4] = test system: luciferase-transfected human EBC-1 NSCLC tumor cells; experiment: EBC-1 NSCLC xenograft (luciferase-transfected), combination with B20.4-1; type: in vivo
Text: Formation of lung metastases was reduced and could be only detected at the end of treatment in 3/10 mice. B20.4-1 was active with a T/C of 19% and lung metastases in 4/10 mice could be detected at the end of treatment. […] Detectable formation of lung metastases could be suppressed in 10/10 mice.

Row | SMILES | T/C [1] | Dunn's Multiple Comparison Test, Difference in rank sum (body weight change %) ([2]; versus Vehicle) | Dunn's Multiple Comparison Test, Significant? P < 0.05? (body weight change %) ([2]; versus Vehicle) | Dunn's Multiple Comparison Test, Summary (body weight change %) ([2]; versus Vehicle) | anti-tumor activity (in words) [3] | partial regression ([4]; SCID hairless mice, 20 days of treatment) | lung metastases detected at the end of treatment ([4]; SCID hairless mice, 20 days, ex vivo lung images) | T/C ([4]; end of treatment (20 days), female SCID hairless mice, compound 10 mg/kg orally daily, B20.4-1 20 mg/kg intraperitoneally biweekly) | tumor growth delay (TGD) ([1]; compound 100 mg/kg, erlotinib 40 then 30 mg/kg, 18 days) | Dunn's Multiple Comparison Test, Difference in rank sum (body weight change %) ([2]; versus erlotinib 30 mg/kg) | Dunn's Multiple Comparison Test, Significant? P < 0.05? (body weight change %) ([2]; versus erlotinib 30 mg/kg) | Dunn's Multiple Comparison Test, Summary (body weight change %) ([2]; versus erlotinib 30 mg/kg)
1 | C#Cc1cccc(Nc2ncnc3cc(OCCOC)c(OCCOC)cc23)c1 [erlotinib, reference compound] | 82% | 6.333 | no | ns | – | – | – | – | – | – | – | –
2 | CN1CCC(COc2cnc(-c3cccc(Cn4nc(-c5cccc(C#N)c5)ccc4=O)c3)nc2)CC1.Cl.O [“A”, 3-(1-{3-[5-(1-Methyl-piperidin-4-ylmethoxy)-pyrimidin-2-yl]-benzyl}-6-oxo-1,6-dihydro-pyridazin-3-yl)-benzonitrile hydrochloride hydrate] | 20% | 2.000 | no | ns | inactive | 1/10 | 3/10 | −20% | 16 days | −4.333 | no | ns
